Test results reported in paper PMC8274846, “Biogenic nanoporous silicon carrier improves the efficacy of buparvaquone against resistant visceral leishmaniasis” (PLoS Neglected Tropical Diseases, 2021).

Assays:
[1] = system: axenic L.donovani amastigotes, wild-type AG83; assay: Antileishmanial activity against axenic amastigotes, wild-type AG83; type: cell-based; conditions: axenic amastigotes, mean ± σ, n = 4; for IC50: Leishmania donovani
Procedure: (§1) L. donovani AG83 (MHOM/IN/83/AG83) and GE1 (MHOM/IN/80/GE1F8R) promastigotes were routinely grown in medium 199 supplemented with 10% heat-inactivated fetal bovine serum, 2 mM L-glutamine, 20 mM HEPES, 100 U/mL penicillin, and 100 μg/mL streptomycin at 25°C. L. donovani amastigote forms were grown and maintained as described previously. Axenic amastigote forms were derived from promastigote forms by culturing them in MMA/20 (medium for axenic amastigote) at pH 5.5 [22]. Axenically grown amastigotes were maintained by sub-culture of 10^5 parasites/ml repeated every fifth day under experimental conditions of 37°C temperature and 5% CO2 environment.
(§2) The antileishmanial activity of the drug specimens (BPQ+NP, BPQ, SSG, AmB, PMM, and MF) against the axenic amastigotes were evaluated based on the IC50 value, which is the concentration of the specimen required to kill 50% of the parasites. The parasites were first seeded into 96-well plates at a density of 1x10^5 amastigotes/well in 200 μL medium. Then, 10 μL of the drug candidates at various concentrations were added and the final volume was adjusted to […] medium. The number of amastigotes in the wells treated with each specimen were compared to those in the untreated control wells.
(§3) Microscopic examinations were performed in duplicates with various concentrations of pure drugs or buparvaquone-loaded nanoparticles and also for control wells. The amastigotes cells were counted for all cases using a hemocytometer. The mean of the control wells was considered as 100% survival. The counts in the treated wells at various concentrations were converted into percentages. Giemsa-stained slides of the macrophages infected with amastigotes were observed under a light microscope. Then the numbers of amastigotes and infected macrophages per 100 cells were counted for each slide. The percentage (%) of inhibition was calculated by using the equation %ofinhibition=C−T/C×100, (2) where C is the number of amastigotes/infected macrophages per 100 cells in the control well and T is the number of amastigotes/infected macrophages per 100 cells in the drug-treated well.
(§4) Origin version 6.1 software was used to calculate IC50 and CC50 values by plotting a graph of the percentage of inhibition at various concentrations of all the observations.

[2] = system: axenic L.donovani amastigotes, AG83-R, PMM (PMM resistant strain generated from AG83); assay: microbe, parasite or virus in culture; type: cell-based; conditions: for Resistance index (RI), AG83-R, PMM: IC50 against drug resistant strain / IC50 against wild-type strain (AG83), axenic; for IC50: Leishmania donovani, read-out: Axenic IC50, AG83-R, PMM
Procedure: as §1
(§5) SSG and PMM resistant L. donovani amastigotes were generated by using the methods described previously. […] The cultures were stabilized for three subcultures. Then, the drug concentration was increased until the cell population decreased approximately to 20% for each batch. Finally, when 90% cell population of the initial count was reduced, the phenotype generated was plated on medium 199 agar plates containing the same drug concentration, and a single colony was picked for culture in medium 199 liquid media at the same drug concentration. The cultured promastigotes are converted into amastigotes as described above. Drug pressure was withdrawn, and stability was checked at one, two, and four months. SSG and PMM resistant phenotype clones were labeled as AG83-R,SSG and AG83-R, PMM, respectively.
as §2, §3, §4

[3] = system: axenic L.donovani amastigotes, AG83-R, SSG (SSG resistant strain generated from AG83); assay: microbe, parasite or virus in culture; type: cell-based; conditions: for Resistance index (RI), AG83-R, SSG: IC50 against drug resistant strain / IC50 against wild-type strain (AG83), axenic; for IC50: Leishmania donovani, read-out: Axenic IC50, AG83-R, SSG
Procedure: as §1, §5, §2, §3, §4

[4] = system: axenic L.donovani amastigotes, GE1 (isolated strain resistant to SSG); assay: Antileishmanial activity against axenic amastigotes, GE1; type: cell-based; conditions: for Resistance index (RI), GE1: IC50 against drug resistant strain / IC50 against wild-type strain (AG83), axenic; for IC50: Leishmania donovani
Procedure: as §1, §2, §3, §4

[5] = Cytotoxicity studies (CC50) on peritoneal macrophages; type: cell-based, BALB/c mice; conditions: BALB/c, mouse, resident peritoneal macrophages, 48 h exposure, mean ± σ, n = 3
Procedure: (§6) Resident peritoneal macrophages were isolated from BALB/c mice. For the isolation, 1.5 mL of sterile thioglycolate medium was injected into the peritoneal cavity to induce non-infectious inflammation. Animals were sacrificed after 5 days, and peritoneal exudates were harvested by intraperitoneal lavage. Cold RPMI (6 mL) was injected into the peritoneal cavity. After 10 min, the injected fluid was withdrawn by the same syringe. From each animal, approximately 3-4 mL of medium was recovered. After centrifugation at 200 g for 15 min, macrophages were collected. […] The cytotoxicity of the drug specimen was evaluated by the CC50 value, which is the concentration required to kill 50% of the host cell population. Macrophages were first isolated from peritoneal lavage as described above. The cells were seeded into 96-well plates at 1x10^6 cells/mL in 200 μL of RPMI-1640 supplemented with 10% FCS, 20 mM L-glutamine, 16 mM NaHCO3, penicillin (50 U/mL) and streptomycin (50 μg/ mL) at 37°C in 5% CO2 for 4 h for adherence. To remove the non-adherent cells, each plate was washed two times with phosphate buffer saline (pH 7.2). […] Microscopic examinations were performed in duplicates with various concentrations of pure drugs or buparvaquone-loaded nanoparticles and also for control wells. The amastigotes cells were counted for all cases using a hemocytometer. The mean of the control wells was considered as 100% survival. The counts in the treated wells at various concentrations were converted into percentages. Giemsa-stained slides of the macrophages infected with amastigotes were observed under a light microscope. Then the numbers of amastigotes and infected macrophages per 100 cells were counted for each slide. The percentage (%) of inhibition was calculated by using the equation %[…]×100, (2) where C is the number of amastigotes/infected macrophages per 100 cells in the control well and T is the number of amastigotes/infected macrophages per 100 cells in the drug-treated well.

[6] = system: intracellular L.donovani amastigotes, wild-type AG83, in macrophages; assay: Antileishmanial activity against intracellular amastigotes, wild-type AG83; type: cell-based; conditions: for Selectivity index (SI), AG83: CC50/IC50, intracellular; for IC50: Leishmania donovani, Macrophage, mean ± σ, n = 4, read-out: Cellular IC50, Wild-type AG83
Procedure: (§7) The intracellular antileishmanial activity was evaluated based on the reduction in the amastigote numbers in the infected macrophages after the treatment. The method was adapted from our previous work. Briefly, 4x10^6 amastigotes in 500 μL of RPMI-1640 suspension were added to each well containing macrophages with the macrophage: parasite ratio of 1:10. The plates were incubated for 4 h at 37°C in 5% CO2. After the parasite internalization period, cells were washed at least twice with fresh media to remove non-phagocytosed parasites. Then, the drug specimen suspended in 1 mL RPMI-1640 was added, and the samples were incubated for 72 h at 37°C in 5% CO2. The medium was aspirated, the coverslips were removed, and then fixed with methanol and air-dried. After staining with Giemsa, 100 cells on the glass discs were counted. Three independent experiments in quadruplicate for each concentration were performed.
as §3, §4

[7] = system: intracellular L.donovani amastigotes, AG83-R, PMM, in macrophages; assay: microbe, parasite or virus in culture; type: cell-based; conditions: for Selectivity index (SI), AG83-R, PMM: CC50/IC50, intracellular; for IC50: Leishmania donovani, Macrophage, read-out: Cellular IC50, AG83-R, PMM
Procedure: as §5, §7, §3, §4

[8] = system: intracellular L.donovani amastigotes, AG83-R, SSG, in macrophages; assay: microbe, parasite or virus in culture; type: cell-based; conditions: for Selectivity index (SI), AG83-R, SSG: CC50/IC50, intracellular; for IC50: Leishmania donovani, Macrophage, read-out: Cellular IC50, AG83-R, SSG
Procedure: as §5, §7, §3, §4

[9] = system: intracellular L.donovani amastigotes, GE1, in macrophages; assay: Antileishmanial activity against intracellular amastigotes, GE1; type: cell-based; conditions: for Selectivity index (SI), GE1: CC50/IC50, intracellular; for IC50: Leishmania donovani, Macrophage, mean ± σ, n = 4, read-out: Cellular IC50, GE1
Procedure: as §7, §3, §4

[10] = system: wild-type AG83 promastigotes; assay: IC50 against wild-type AG83 promastigotes (used for generation of resistant strains); type: cell-based, L. donovani
Procedure: as §5

L.donovani = system: L.donovani; design: method as in PMID 25936561; conditions: L.donovani infection; cited from earlier work
liver parasite burden = system: liver parasite burden; design: method as in PMID 14695832, PMID 17715126; conditions: BALB/c mice; cited from earlier work
[11] = system: resident peritoneal macrophages; assay: Cytotoxicity studies (CC50) on peritoneal macrophages; type: cell-based, BALB/c mice; conditions: 48 h exposure, values for SSG given in μg/ml
Procedure: as §6

[12] = axenic amastigotes, mean ± σ, n = 4
[13] = intracellular amastigotes, 72 h
[14] = axenic amastigotes, values for SSG given in μg/ml, mean ± σ, n = 4
[15] = intracellular amastigotes, 72 h, values for SSG given in μg/ml

SMILES	IC50 [1] [nM]	Resistance index (RI), AG83-R, PMM [2]	Resistance index (RI), AG83-R, SSG [3]	IC50 [3] [nM]	Resistance index (RI), GE1 [4]	IC50 [4, 12] [nM]	CC50 at 48 h [5] [nM]	Selectivity index (SI), AG83 [6]	IC50 [6, 13] [nM]	Selectivity index (SI), AG83-R, PMM [7]	Selectivity index (SI), AG83-R, SSG [8]	IC50 ([8]; 72 h) [nM]	Selectivity index (SI), GE1 [9]	IC50 [9, 13] [nM]	IC50 [2] [nM]	IC50 ([7]; 72 h) [nM]	other results
CCCCCCCCCCCCCCCCOP(=O)([O-])OCC[N+](C)(C)C [MF, miltefosine]	500 ± 100	1.1 ± 0.2	1.3 ± 0.2	600 ± 100	1.1 ± 0.3	500 ± 100	36000 ± 4000	100 ± 10	400 ± 100	70 ± 10	60 ± 5	700 ± 100	80 ± 10	500 ± 100	–	–	–
NC[C@@H]1O[C@H](O[C@H]2[C@@H](O)[C@H](O[C@@H]3[C@@H](O)[C@H](N)C[C@H](N)[C@H]3O[C@H]3O[C@H](CO)[C@@H](O)[C@H](O)[C@H]3N)O[C@@H]2CO)[C@H](N)[C@@H](O)[C@@H]1O [PMM, paromomycin]	12000 ± 1000	27 ± 2	32 ± 3	384000 ± 23000	2.1 ± 0.3	25000 ± 2000	260000 ± 20000	30 ± 5	9000 ± 2000	2 ± 1	2 ± 1	140000 ± 10000	13 ± 2	20000 ± 3000	327000 ± 12000	120000 ± 10000	IC50 ([10]; Leishmania donovani, medium 199, read-out: IC50 against the parasite): 10000 nM
C[C@@H]1CC[C@H]2[C@@H](C)C(=O)O[C@@H]3O[C@@]4(C)CC[C@@H]1[C@]32OO4 [artemisinin]	–	–	–	–	–	–	–	–	–	–	–	–	–	–	–	–	Reduction of parasite burdens (liver and spleen) (L.donovani): ~ 50%
CC(C)(C)C1CCC(CC2=C(OP(=O)(O)O)C(=O)c3ccccc3C2=O)CC1 (stereo not drawn) [buparvaquone-3-phosphate]	–	–	–	–	–	–	–	–	–	–	–	–	–	–	–	–	Reduction in the liver parasite burden (liver parasite burden): 34%
O.O.O.O.O.O.O.O.O.O=C([O-])[C@@H]1[O][Sb](=[O])([O][Sb]2(=[O])[O][C@H]([C@H](O)CO)[C@H](O)[C@H](C(=O)[O-])[O]2)[O][C@H]([C@H](O)CO)[C@@H]1O.[Na+].[Na+].[Na+] (stereo partly drawn) [SSG, sodium stibogluconate]	–	32 ± 3	38 ± 4	–	4 ± 1	–	–	15 ± 4	–	2 ± 1	1 ± 1	–	4 ± 2	–	–	–	Axenic IC50, Wild-type AG83 ([1]; values for SSG given in μg/ml): 3.5 ± 0.7 µg/mL; Axenic IC50, AG83-R, PMM [2, 14]: 113 ± 15 µg/mL; Axenic IC50, AG83-R, SSG [3, 14]: 133 ± 15 µg/mL; Axenic IC50, GE1 [4, 14]: 14 ± 2 µg/mL; CC50 [11]: 27 ± 2 µg/mL; Cellular IC50, Wild-type AG83 [6, 15]: 1.8 ± 0.2 µg/mL; Cellular IC50, AG83-R, PMM [7, 15]: 20 ± 2 µg/mL; Cellular IC50, AG83-R, SSG [8, 15]: 22 ± 2 µg/mL; Cellular IC50, GE1 [9, 15]: 7.5 ± 0.3 µg/mL; IC50 against the parasite ([10]; medium 199): 3.6 µg/mL
C[C@@H]1[C@H](O)[C@@H](C)/C=C/C=C/C=C/C=C/C=C/C=C/C=C/[C@H](O[C@@H]2O[C@H](C)[C@@H](O)[C@H](N)[C@@H]2O)C[C@@H]2O[C@](O)(C[C@@H](O)C[C@@H](O)[C@H](O)CC[C@@H](O)C[C@@H](O)CC(=O)O[C@H]1C)C[C@H](O)[C@H]2C(=O)O [AmB, amphotericin B]	200 ± 100	1.2 ± 0.2	1.1 ± 0.1	300 ± 100	1.1 ± 0.2	300 ± 100	15000 ± 2000	80 ± 10	200 ± 100	70 ± 10	70 ± 10	200 ± 100	90 ± 10	200 ± 100	300 ± 100	300 ± 100	–
